# Key:
# LU-01-0426 = assay: Patient derived xenograft (PDX) mouse model; type: in vivo, nude mice
# Description: (§1) Assay 3. In vivo studies in cell line-derived (CDX) and patient derived xenografts (PDX) mouse models
# (§2) Cells (H1975) or tissue pieces (LU0493 and LU0426) were implanted subcutaneously into the left armpit of nude mice. When the average tumor volume reached 100-150 mm^3, mice were randomized by tumor volume and treated with vehicle, compound 1 or poziotinib respectively. Tumor volume and body weight were measured twice per week. Mice were sacrificed on day 21 or day 28, and tumor volume and terminal body weight were recorded. The relative tumor volume, percent of treatment/control values and tumor growth inhibition were calculated and statistics was performed.
# (§3) Terminal body weight changes were calculated as percentage of body changes from day 1 to day 21.
# LU-01-0493 = assay: Patient derived xenograft (PDX) mouse model; type: in vivo, nude mice
# Description: as §1, §2, §3
# [1] = tested on: tumor growth with EGFR exon 20 insertions and T790M mutations; assay: In vivo CDX and PDX mouse models, overall statement; set-up: species or system nude mice
# Description: as §1, §2, §3
smiles,measurement,setting,value
"C=CC(=O)Nc1cc(Nc2nccc(-n3c(=O)n4c5c(cc(F)cc53)CCC4)n2)c(OC)cc1N(C)CCN(C)C [Compound 1, N-(2-((2-(dimethylamino)ethyl)(methyl)amino)-5-((4-(8-fluoro-2-oxo-5,6-dihydro-4H-imidazo[4,5,1-ij]quinolin-1(2H)-yl)pyrimidin-2-yl)amino)-4-methoxyphenyl)acrylamide]",TGI (%),"LU-01-0426; LU-01-0426, 15 mg/kg compound 1",47%
same,Terminal body weight changes (%),"LU-01-0426; LU-01-0426, 15 mg/kg compound 1, day 1 to day 21",5.7%
same,TGI (%),"LU-01-0426; LU-01-0426, 30 mg/kg compound 1",84%
same,Terminal body weight changes (%),"LU-01-0426; LU-01-0426, 30 mg/kg compound 1, day 1 to day 21",1.8%
same,TGI (%),"LU-01-0426; LU-01-0426, 60 mg/kg compound 1",106.3%
same,Terminal body weight changes (%),"LU-01-0426; LU-01-0426, 60 mg/kg compound 1, day 1 to day 21",−2%
same,TGI (%),"LU-01-0493; LU-01-0493, 15 mg/kg compound 1",55.4%
same,Terminal body weight changes (%),"LU-01-0493; LU-01-0493, 15 mg/kg compound 1, day 1 to day 21",3.2%
same,TGI (%),"LU-01-0493; LU-01-0493, 30 mg/kg compound 1",72.3%
same,Terminal body weight changes (%),"LU-01-0493; LU-01-0493, 30 mg/kg compound 1, day 1 to day 21",−6.1%
same,TGI (%),"LU-01-0493; LU-01-0493, 60 mg/kg compound 1",88.9%
same,Terminal body weight changes (%),"LU-01-0493; LU-01-0493, 60 mg/kg compound 1, day 1 to day 21",−6.5%
same,"impact on body weight compared to poziotinib, in words",[1],less impacts on body weight

# Source: patent US11993598B2, “Compounds for inhibiting EGFR kinase, preparation methods and uses thereof” (WIGEN BIOMEDICINE TECHNOLOGY (SHANGHAI) CO., LTD., priority 2019, dated 2024)
